The results in this text go back to article PMC5419506, “Aromatic amino acids in the cellulose binding domain of Penicillium crustosum endoglucanase EGL1 differentially contribute to the cellulose affinity of the enzyme” (PLoS ONE, 2017).

Molecules are shown by their SMILES.

This assay addresses T1, eGFP-Linker-CBD (CBD domain of Penicillium crustosum endoglucanase EGL1) (Penicillium crustosum, UniProt U6A8H3).
T1 construct: N-terminal eGFP fusion in pET-28a, Ni-column, E. coli BL21(DE3)
T1 sequence (U6A8H3 301-459): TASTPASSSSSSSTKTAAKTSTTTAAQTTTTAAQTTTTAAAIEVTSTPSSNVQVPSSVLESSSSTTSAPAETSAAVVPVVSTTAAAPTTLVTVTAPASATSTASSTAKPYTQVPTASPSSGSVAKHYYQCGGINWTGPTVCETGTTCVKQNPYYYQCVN
In words: isothermal titration calorimetry. Conditions: 20 mM Tris-HCl pH 7.5, 50 mM NaCl; 25 °C; multi-site binding model; unit not given. On the technique in general: ITC needs no label: the signal is the heat of the interaction.

Take `OC[C@H]1O[C@@H](O[C@H]2[C@H](O)[C@@H](O)[C@H](O[C@H]3[C@H](O)[C@@H](O)[C@H](O[C@H]4[C@H](O)[C@@H](O)[C@H](O[C@H]5[C@H](O)[C@@H](O)C(O)O[C@@H]5CO)O[C@@H]4CO)O[C@@H]3CO)O[C@@H]2CO)[C@H](O)[C@@H](O)[C@@H]1O` (stereo partly shown) [cellopentose]: the Ka was found to be 2.3E4.
